This note sets out measurements from ChEMBL document CHEMBL1146342, “Respiratory syncytial virus fusion inhibitors. Part 4: optimization for oral bioavailability” (Bioorg Med Chem Lett, 2007).

As usually defined, the AUC is concentration integrated over time. Higher therefore signals high exposure. A word on the Papp: it is a coefficient for how fast a substance crosses the barrier. A lower Papp goes with poor permeation. Broadly, the logD is lipophilicity at a set pH, counting ionised and neutral species. A higher logD goes with a more lipophilic compound.

A short description of data set [1]: in vivo. The following applies: cynomolgus monkey, plasma, po, 0.5 mg/kg.
Data set [2] in a line: in vivo. The settings on record: mouse, plasma, po, 10 mg/kg.
Data set [3] in a line: in vivo. The settings on record: rat, plasma, po, 5 mg/kg.
The nature of data set [4]: in vivo. The settings on record: dog, plasma, po, 0.5 mg/kg.
Data set [5] can be described thus: in vitro. The following applies: human, Caco-2, permeability. (In general: Passage across Caco-2 layers is used to estimate intestinal permeability.)
The nature of data set [6]: physchem. The settings on record: octanol/water, pH 6.5.

With `CCS(=O)(=O)CCCn1c(Cn2c(=O)n(CC(F)(F)F)c3ccncc32)nc2ccccc21`, the AUC is 118 ng·h/mL in data set [1], 2000 ng·h/mL in data set [2], 133 ng·h/mL in data set [3] and 438 ng·h/mL in data set [4].

In turn, `N#CCCCn1c(Cn2c(=O)n(CC(F)(F)F)c3ccncc32)nc2ccccc21` had a Papp in data set [5] of 19.7 ×10⁻⁶ cm/s.

In turn, `CC(C)n1c(=O)n(Cc2nc3ccccc3n2CCCC#N)c2cnccc21` registered a Papp in data set [5] of 16.9 ×10⁻⁶ cm/s.

As to `O=c1n(Cc2nc3ccccc3n2CCCCF)c2cnccc2n1CC(F)(F)F`, in data set [5], the Papp came out at 24.5 ×10⁻⁶ cm/s.

In turn, `CC(C)(C)n1c(=O)n(Cc2nc3ccccc3n2CCCC#N)c2cnccc21` registered a Papp in data set [5] of 21.4 ×10⁻⁶ cm/s.

Regarding `N#CCCCn1c(Cn2c(=O)n(C3CC3)c3ccncc32)nc2ccccc21`, the AUC was 270 ng·h/mL in data set [1], 600 ng·h/mL in data set [2], 973 ng·h/mL in data set [3] and 755 ng·h/mL in data set [4]. The logD in data set [6] is 2.1.

Take `CS(=O)(=O)CCCn1c(Cn2c(=O)n(CC(F)(F)F)c3ccncc32)nc2ccccc21`: the AUC was 185 ng·h/mL in data set [1], 1430 ng·h/mL in data set [2], 40 ng·h/mL in data set [3] and 307 ng·h/mL in data set [4]. Moreover, the Papp in data set [5] was determined as 3.6 ×10⁻⁶ cm/s.
